Laboratory results from US12544348B2, “Methods for treating APOE4/4-associated disorders” (The Regents of the University of California, priority 2018, dated 2026).

Assays:
[1] = test system: hippocampus of apoE4-KI mice; assay: RNA-Seq analysis of hippocampal tissue of apoE4-KI mice; assay type: in vivo
Procedure: RNA-Seq analysis of hippocampal tissue. Twelve-month-old apoE3-KI and apoE4-KI mice received daily i.p. injections of vehicle or bumetanide (0.2 mg/kg body weight) for 60 days. Mice were perfused with 0.9% saline, and the hippocampus was dissected and homogenized in Trizol reagent. Total RNA was extracted and purified with the Qiagen RNeasy Micro kit, which included a DNase treatment. cDNA was generated from full-length RNA (50 ng per sample) with the NuGEN RNA-Seq V2 kit, which uses the single primer isothermal amplification method to deplete ribosomal RNA, and sheared by Covaris to yield fragments of uniform size. The NuGen Ultralow system V2 was used for adding adapters and for barcoding and amplification. The resulting RNA libraries were purified with Agencourt XP magnetic beads, and quantified by qPCR after quality control with an Agilent Bioanalyzer. The libraries were pooled and sequenced with a HiSeq 4000 instrument (Illumina) for single-end (SE50) sequencing. Sequence data were aligned with the STAR short read aligner^33 and counts per feature were obtained with the feautureCounts function from the Subread package^34. After alignment, transcripts not shared in the GSE15222 and Syn3157255-MayoEGWAS databases were discarded, as were genes with less than one count per million in two or more samples^35.
The DESeq pipeline was used to assess DE of the remaining 11,877 transcripts. Genes below a P value of 0.05 were considered DE for future pathway analysis. After count normalization with DESeq, data were rld transformed (vsn package), and clustering was done on the DE genes with the pheatmap package. PCA was applied to the rld-transformed DE genes. The DE signatures of drugs were analyzed with Ingenuity Pathway Analysis software. Ontology analysis was done using the reference set from the Ingenuity Knowledge Base including direct and indirect gene relationships. For analysis of rank changes of apoE-genotype-specific signature genes of AD, the raw count data from the 11,877 transcripts were rank transformed, and for each gene the average rank of vehicle-treated samples was subtracted from that of bumetanide-treated samples.

[2] = test system: apoE4-KI mice; assay: Morris water maze (MWM) spatial learning and memory, aged apoE4-KI mice; assay type: in vivo
Description: Mice. All protocols and procedures followed the guidelines of the Laboratory Animal Resource Center at the University of California, San Francisco (UCSF). All mice were housed under identical conditions from birth through death (12-hour light/dark cycle, housed 5/cage, PicoLab Rodent Diet 20). All mouse lines were maintained on a C57Bl/6J background. ApoE3-KI and apoE4-KI homozygous mouse lines (Taconic)^30,31 were born and aged under normal conditions at the Gladstone Institutes/UCSF animal facility. Female apoE-KI mice were used because of their susceptibility to AD-related neuronal and behavioral deficits. The ages of the mice are indicated in the behavioral testing section of the online methods. Bumetanide treatment. Bumetanide was prepared at 220 μM in 2% DMSO in 0.9% sterile saline, adjusted to pH 8.5 with NaOH for solubility, and given by i.p. injection daily starting 6 weeks before and continuing throughout behavioral assessment. Body weight was measured weekly during bumetanide treatment; injection volume was calculated to achieve a dose of 0.02 (low) or 0.2 (high) mg bumetanide/kg body mass (e.g., 50-ul daily injection for a 20-g mouse). Control mice were injected with a matched volume of 2% DMSO in 0.9% sterile saline, pH 8.5. […] Behavioral testing. Mice were singly housed before testing. Each mouse was assigned a random number, so researchers were blinded to genotype and treatment information. At about 14 months of age, apoE3-KI and apoE4-KI mice were randomly assigned to treatment groups: apoE3-KI vehicle (n=10, age 14.01±0.44 months), apoE3-KI low bumetanide (n=11, age 14.30±0.33 months), apoE3-KI high bumetanide (n=10, age 13.74±0.22 months), apoE4-KI vehicle (n=10, age 14.10±0.35), apoE4-KI low bumetanide (n=10, age 14.70±0.27 months), apoE4-KI high bumetanide (n=9, age 13.77±0.28 months). Treatment was administered daily by i.p. injection beginning 6 weeks before and continuing throughout the 14 days of testing in the Morris water maze (MWM); injections were given at the end of the light cycle and after the day's test. The MWM pool (diameter, 122 cm) contained opaque water (22-23° C.) with a platform 10 cm in diameter. The platform was submerged 1.5 cm during hidden platform sessions^20-23,32 and marked with black-and-white-striped mast (15 cm high) during cued training sessions. Mice were trained to locate the hidden platform (hidden days 1-5) and the cued platform (visible days 1-3) in two daily sessions (3.5 h apart), each consisting of two 60-s trials (hidden and cued training) with a 15-min intertrial interval. Distal visual cues on the walls of the behavioral testing room remained constant throughout the test. Visible trials took place after training and memory probes and were 60 seconds long with a cued visible platform. The platform location remained constant in the hidden platform sessions but was changed for each cued (visible) platform session. Entry points were changed semirandomly between trials. At 24, 72, and 120 hours after the last hidden platform training, a 60-s probe trial (platform removed) was done. The entry point for the probe trial was in the southwest quadrant, and the target quadrant was the northeast quadrant. Performance was monitored with an Etho Vision video-tracking system (Noldus Information Technology). For the probe trials, the following analyses were performed (1) the percent time spent in the target quadrant versus average time spent in the three other quadrants, (2) the number of crossings over the position of the target platform versus the average number of crossings over the equivalent positions in the three other quadrants and (3) the distance to platform over the first 10 seconds. Statistical analyses. Behavior metrics are expressed as mean±SEM. All values for n are the numbers of mice or biological replicates. The distribution of data was assessed with the Shapiro-Wilk normality test; most of the data were normally distributed. […]

[3] = 16-month-old apoE4-KI mice, high dose 0.2 mg/kg daily i.p. 8 weeks
[4] = apoE4-KI mice, high dose 0.2 mg/kg daily i.p. 8 weeks

## CCCCNc1cc(C(=O)O)cc(S(N)(=O)=O)c1Oc1ccccc1 [bumetanide, 3-(butylamino)-4-phenoxy-5-sulfamoylbenzoic acid]
[1]; DE genes P<0.05, apoE4-KI mouse hippocampus, 0.2 mg/kg i.p. 8 weeks
  number of significantly perturbed pathways (Ingenuity Pathway Analysis): 71
[1]; apoE4-KI mouse hippocampus, 0.2 mg/kg i.p. 8 weeks
  number of enriched pathways shared with apoE4/4 AD in humans: 6
[1]; apoE4-KI mouse hippocampus, 0.2 mg/kg i.p. 8 weeks vs vehicle
  mean change in expression rank of genes downregulated in apoE4/4 AD (n=56): not significantly shifted away from zero
[1]; apoE4-KI mouse hippocampus, 0.2 mg/kg i.p. 8 weeks vs vehicle, mean of all genes zero, P<0.001 Monte Carlo, shift toward lower expression
  average change in expression rank of the 157 genes upregulated in apoE4/4 human AD: 49.76
[2]; [3]
  long-term memory, 120-hour probe trial (time in target quadrant): significant preference for the target quadrant
  short-term memory, 24-hour probe trial (percent time in target quadrant): rescued the short-term memory deficit
[2]; 16-month-old apoE4-KI mice, low dose 0.02 mg/kg daily i.p. 8 weeks
  short-term memory, 24-hour probe trial (percent time in target quadrant): rescued the short-term memory deficit
[2]; apoE4-KI mice, 0.02 or 0.2 mg/kg daily i.p. 8 weeks, vs vehicle, learning days 1-5
  learning curve (escape latency) in hidden platform trials: did not differ
[2]; [4]
  platform crossings in target quadrant versus other quadrants, 24-hour probe trial: significantly more platform crossings in the target quadrant
  platform crossings in target quadrant versus other quadrants, 120-hour probe trial: significantly more platform crossings in the target quadrant
[2]; apoE4-KI mice, low dose 0.02 mg/kg daily i.p. 8 weeks
  short-term memory accuracy (platform crossings), 24-hour probe trial: trend toward significant improvement
